pIC50: −log10 of the molar value.
Tests used:
[1] = target: Adenosine kinase (Rattus norvegicus, UniProt Q64640); test: In vitro inhibition of Adenosine kinase (AK)
[2] = target: Adenosine kinase (Homo sapiens, UniProt P55263); test: Inhibition of adenosine phosphorylation in confluent IMR-32 (human neuroblastoma) cells.; type: functional, cell-based
Sequence of Adenosine kinase (Homo sapiens, UniProt P55263) (P55263 whole entry): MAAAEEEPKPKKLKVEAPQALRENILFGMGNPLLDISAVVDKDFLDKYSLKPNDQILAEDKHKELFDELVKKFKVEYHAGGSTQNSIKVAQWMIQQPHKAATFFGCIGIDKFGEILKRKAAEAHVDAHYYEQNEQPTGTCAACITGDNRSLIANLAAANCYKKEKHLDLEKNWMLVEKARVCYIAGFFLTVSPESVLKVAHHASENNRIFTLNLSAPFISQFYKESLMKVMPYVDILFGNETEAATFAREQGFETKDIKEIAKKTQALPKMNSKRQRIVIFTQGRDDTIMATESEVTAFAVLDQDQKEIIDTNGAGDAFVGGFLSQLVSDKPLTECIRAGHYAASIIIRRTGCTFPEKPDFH

Sequence of Adenosine kinase (Rattus norvegicus, UniProt Q64640) (Q64640 whole entry): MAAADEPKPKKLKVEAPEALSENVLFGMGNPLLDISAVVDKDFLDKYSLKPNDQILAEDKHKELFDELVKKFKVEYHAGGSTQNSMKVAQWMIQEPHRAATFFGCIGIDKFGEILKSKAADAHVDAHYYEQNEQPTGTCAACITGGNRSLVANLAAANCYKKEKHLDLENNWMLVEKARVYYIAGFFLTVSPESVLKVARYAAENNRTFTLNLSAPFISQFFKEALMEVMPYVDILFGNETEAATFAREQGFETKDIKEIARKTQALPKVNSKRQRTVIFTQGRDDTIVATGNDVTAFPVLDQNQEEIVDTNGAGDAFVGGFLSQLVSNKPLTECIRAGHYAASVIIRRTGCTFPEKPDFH

Row | SMILES | pIC50 [1] | pIC50 [2]
1 | CN(C)c1ccc(-c2cc(-c3ccccc3)c3c(N)ncnc3n2)cc1 |  | 6.33
2 | COC(=O)c1cccc(-c2cc3c(N)ncnc3nc2-c2ccc(N(C)C)cc2)c1 | 7.18 | 6.15
3 | NC[C@H]1O[C@@H](n2cnc3c(N)ncnc32)[C@H](O)[C@@H]1O | 7.82 | 5.20
4 | CN(C)c1ccc(-c2nc3ncnc(N)c3nc2-c2ccccc2)cc1 | 7.60 | 6.48
5 | Nc1ncnc2nc(-c3ccc([N+](=O)[O-])cc3)cnc12 | 5.32 | < 5.00
6 | CN(C)c1ccc(-c2cc(-c3cccc(Br)c3)c3c(N)ncnc3n2)cc1 |  | 6.78
7 | Nc1ccc(-c2cnc3c(N)ncnc3n2)cc1 | 5.76 | < 5.00
8 | Cc1ccc(-c2cc3c(N)ncnc3nc2-c2ccc(N(C)C)cc2)cc1 | 7.13 | 6.30
9 | CN(C)c1ccc(-c2cnc3c(N)ncnc3n2)cc1 | 6.36 | 5.44
10 | CN(C)c1ccc(-c2cc(-c3cccc(Br)c3)c3c(N)ncnc3n2)cn1 | 8.74 | 7.49
11 | CN(C)c1ccc(-c2nc3ncnc(N)c3cc2-c2ccc(C(C)(C)C)cc2)cc1 | 7.20 | < 6.00
12 | Nc1ncnc2nc(-c3ccc(N4CCOCC4)cc3)cnc12 | 6.40 | 6.00

Other lines, results leading:

Row | pIC50 [1] | pIC50 [2] | SMILES
13 | 8.55 | 6.87 | C[C@H]1O[C@@H](n2cc(-c3ccccc3)c3c(Nc4ccc(F)cc4)ncnc32)[C@H](O)[C@@H]1O
14 | 5.70 | < 5.00 | COc1ccc(-c2cnc3c(N)ncnc3n2)cc1
15 | 6.11 | < 5.00 | CN(C)c1ccc(-c2ccc3c(N)ncnc3n2)cc1
16 | 8.77 | 7.30 | Nc1ncnc2nc(-c3ccc(N4CCOCC4)nc3)cc(-c3cccc(Br)c3)c12
17 | 5.26 | < 5.00 | Nc1ncnc2nc(-c3ccccc3)cnc12
18 | 8.08 | 6.33 | CN(C)c1ccc(-c2cc(C3CCCCC3)c3c(N)ncnc3n2)cc1
19 | 7.04 | 6.25 | COc1ccc(-c2cc3c(N)ncnc3nc2-c2ccc(N(C)C)cc2)cc1
20 | 5.70 | 4.59 | Nc1ncnc(N[C@@H]2O[C@H](CO)[C@@H](O)[C@H]2O)c1[N+](=O)[O-]
